target: T1, human CCR1 (Homo sapiens, UniProt P32246); experiment: CCR1 binding protocol (SPA, [125I]-MIP-1α displacement); conditions: cell membrane expressing human CCR1, 0.1 nM [125I]-MIP-1α, 4 hours at ambient temperature; read-out: Relative potency (IC50)
T1 sequence (P32246 1-355): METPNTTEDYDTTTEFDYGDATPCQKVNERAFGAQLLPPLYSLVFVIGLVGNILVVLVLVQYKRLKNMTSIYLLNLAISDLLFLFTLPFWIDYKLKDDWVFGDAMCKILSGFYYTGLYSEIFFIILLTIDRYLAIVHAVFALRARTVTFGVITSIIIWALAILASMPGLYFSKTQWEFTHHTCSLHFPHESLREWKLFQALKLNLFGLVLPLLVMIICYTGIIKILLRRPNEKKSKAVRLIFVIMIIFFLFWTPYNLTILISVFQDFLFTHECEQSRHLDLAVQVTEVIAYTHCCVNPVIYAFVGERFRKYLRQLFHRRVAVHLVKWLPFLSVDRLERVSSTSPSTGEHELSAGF
Description: The following protocol was used to test compounds for CCR1 binding. A mixture, including scintillation proximity assay (SPA) beads and cell membrane expressing human CCR1, was prepared in assay buffer (130 mM NaCl+5 mM KCl+1 mM MnCl+50 mM Tris HCl at pH 7.4+0.1% bovine serum albumin (BSA)) at the ratio of 50 μg/ml membrane to 10 mg/ml SPA beads. 10 μl of the mixture was transferred to each well of a 384-well assay plate yielding a final concentration for the membrane and SPA beads of 0.5 μg/well and 100 μg/well, respectively
To generate different concentrations of the test compound, compound stocks were prepared using 10 step ½ log dilutions with a high concentration of 10 mM in DMSO and the lowest concentration being DMSO only without compound. An intermediate 40× dilution was then prepared in the assay buffer. The compound was then transferred at 10 μl/well to the assay plate. 0.5 nM [^125 I]-labeled macrophage inflammatory protein-1α (MIP-1α, an endogenous CCR1 ligand) in the assay buffer was transferred to the assay plate at 5 μl/well, for a final ligand concentration of 0.1 nM. The assay plate was then centrifuged at 2500 rpm for 2 minutes and incubated for 4 hours at ambient temperature, at which time the raw data was recorded using microbeta. The IC50 was then calculated using Graphpad Prism.

Row | Structure (SMILES) | IC50
1 | O=C(Nc1ccc(Cl)cc1F)N1CCC[C@@H]1c1ncnn1Cc1ccc(Cl)cc1 [Compound 68] | 50 to 500 nM
2 | Cn1ncc(-c2ccccc2)c1NC(=O)N1CCC[C@@H]1c1ncnn1Cc1ccc(Cl)cc1 [Compound 69] | 50 to 500 nM
3 | O=C(Nc1ccc2nonc2c1)N1CCC[C@@H]1c1ncnn1Cc1ccc(Cl)cc1 [Compound 71] | 50 to 500 nM
4 | N#Cc1ccc2c(c1)OCCC2NC(=O)N1CCC[C@@H]1c1ncnn1Cc1ccc(Cl)cc1 (stereo partly drawn) [Compound 72] | 50 to 500 nM
5 | CC(C)Cc1ccc([C@H](C)NC(=O)N2CCC[C@@H]2c2ncnn2Cc2ccc(Cl)cc2)cc1 [Compound 75] | 50 to 500 nM
6 | CC1(C)CC[C@@H](NC(=O)N2CCC[C@@H]2c2ncnn2Cc2ccc(Cl)cc2)c2ccccc21 [Compound 77] | 50 to 500 nM
7 | O=C(NC1CCS(=O)(=O)c2ccccc21)N1CCC[C@@H]1c1ncnn1Cc1ccc(Cl)cc1 (stereo partly drawn) [Compound 78] | 500 to 5000 nM
8 | CC[C@H](NC(=O)N1CCC[C@@H]1c1ncnn1Cc1ccc(Cl)cc1)c1cc2ccccc2o1 [Compound 80] | < 50 nM
9 | C[C@H](NC(=O)N1CCC[C@@H]1c1ncnn1Cc1ccc(Cl)cc1)c1cc2ccccc2o1 [Compound 81] | < 50 nM
10 | O=C(N[C@H]1CCCc2cc(C(F)(F)F)ccc21)N1CCC[C@@H]1c1ncnn1Cc1ccc(Cl)cc1 [Compound 82] | < 50 nM
11 | Cc1nc(-c2ccccc2)sc1NC(=O)N1CCC[C@@H]1c1ncnn1Cc1ccc(Cl)cc1 [Compound 83] | 50 to 500 nM
12 | O=C(NC1CCCOc2ccc(Cl)cc21)N1CCC[C@@H]1c1ncnn1Cc1ccc(Cl)cc1 (stereo partly drawn) [Compound 84] | 50 to 500 nM
13 | O=C(NC1CCc2cc(C(F)(F)F)ccc21)N1CCC[C@@H]1c1ncnn1Cc1ccc(Cl)cc1 (stereo partly drawn) [Compound 86] | 50 to 500 nM
14 | O=C(NC1CCCOc2cc(Cl)ccc21)N1CCC[C@@H]1c1ncnn1Cc1ccc(Cl)cc1 (stereo partly drawn) [Compound 88] | 500 to 5000 nM
15 | O=C(NC1CCCOc2ccccc21)N1CCC[C@@H]1c1ncnn1Cc1ccc(Cl)cc1 (stereo partly drawn) [Compound 89] | < 50 nM
16 | O=C(Nc1ccc2occc2c1)N1CCC[C@@H]1c1ncnn1Cc1ccc(Cl)cc1 [Compound 91] | 50 to 500 nM
17 | Cc1nc([C@H]2CCCN2C(=O)Nc2ccc(C(F)(F)F)cc2)n(Cc2ccc(Cl)cc2)n1 [Compound 92] | 500 to 5000 nM

Row | Structure (SMILES) | IC50
18 | Cc1nc([C@H]2CCCN2C(=O)Nc2c(C)cc(C(F)(F)F)cc2C)n(Cc2ccc(Cl)cc2)n1 [Compound 94] | 50 to 500 nM
19 | CC[C@H](NC(=O)N1CCC[C@@H]1c1nc(C)nn1Cc1ccc(Cl)cc1)c1cc2ccccc2o1 [Compound 95] | 50 to 500 nM
20 | CC[C@H](NC(=O)N1CCC[C@@H]1c1nc(C)nn1Cc1ccc(Cl)cc1)c1c(C)cc(C(F)(F)F)cc1C [Compound 97] | 500 to 5000 nM
21 | O=C(NC1(c2ccc(C(F)(F)F)cc2)CC1)N1CCC[C@@H]1c1ncnn1Cc1ccc(Cl)cc1 [Compound 98] | 50 to 500 nM
22 | Cc1cc(C(F)(F)F)cc(C)c1NC(=O)N1CCC[C@@H]1c1nnc(C)n1Cc1ccc(Cl)cc1 [Compound 102] | < 50 nM
23 | Cc1cc(C(F)(F)F)ccc1NC(=O)N1CCC[C@@H]1c1nncn1Cc1ccc(Cl)cc1 [Compound 104] | < 50 nM
24 | Cc1cc(Cl)cc(C)c1NC(=O)N1CCC[C@@H]1c1nncn1Cc1ccc(Cl)cc1 [Compound 106] | < 50 nM
25 | O=C(N[C@H]1CCOc2cc(C(F)(F)F)ccc21)N1CCC[C@@H]1c1nncn1Cc1ccc(Cl)cc1 [Compound 107] | < 50 nM
26 | O=C(Nc1ccc(C(F)(F)F)cc1)N1CCC[C@@H]1c1nncn1Cc1ccc(Cl)cc1 [Compound 108] | < 50 nM
27 | O=C(NC1CCS(=O)(=O)c2ccccc21)N1CCC[C@@H]1c1nncn1Cc1ccc(Cl)cc1 (stereo partly drawn) [Compound 110] | < 50 nM
28 | Cc1nnc([C@H]2CCCN2C(=O)N[C@H]2CCOc3cc(C(F)(F)F)ccc32)n1Cc1ccc(Cl)cc1 [Compound 111] | < 50 nM
29 | Cc1nnc([C@H]2CCCN2C(=O)Nc2ccc(C(F)(F)F)cc2)n1Cc1ccc(Cl)cc1 [Compound 112] | 50 to 500 nM
30 | CC[C@H](NC(=O)N1CCC[C@@H]1c1nncn1Cc1ccc(Cl)cc1)c1cc2ccccc2o1 [Compound 116] | < 50 nM
31 | CC[C@H](NC(=O)N1CCC[C@@H]1c1nnc(C)n1Cc1ccc(Cl)cc1)c1c(C)cc(C(F)(F)F)cc1C [Compound 119] | < 50 nM
32 | CC[C@H](NC(=O)N1CCC[C@@H]1c1nncn1Cc1ccc(Cl)cc1)c1c(C)cc(C(F)(F)F)cc1C [Compound 120] | < 50 nM
33 | O=C(Nc1ccc2occc2c1)N1CCC[C@@H]1c1nncn1Cc1ccc(Cl)cc1 [Compound 121] | 50 to 500 nM

The next lines start with the values.

Row | IC50 | Structure (SMILES)
34 | 50 to 500 nM | O=C(Nc1ccc(C(F)(F)F)cc1Cl)N1CCC[C@@H]1c1ncnn1Cc1ccc(Cl)cc1 [Compound 70]
35 | 50 to 500 nM | O=C(Nc1ccc(SC(F)(F)F)cc1)N1CCC[C@@H]1c1ncnn1Cc1ccc(Cl)cc1 [Compound 74]
36 | 50 to 500 nM | CS(=O)(=O)c1ccc(NC(=O)N2CCC[C@@H]2c2ncnn2Cc2ccc(Cl)cc2)cc1 [Compound 76]
37 | 500 to 5000 nM | CC1(C)CC[C@H](NC(=O)N2CCC[C@@H]2c2ncnn2Cc2ccc(Cl)cc2)c2ccccc21 [Compound 79]
38 | 50 to 500 nM | CC1(C)CC(NC(=O)N2CCC[C@@H]2c2ncnn2Cc2ccc(Cl)cc2)c2ccccc2O1 (stereo partly drawn) [Compound 85]
39 | 50 to 500 nM | O=C(NC1CCCOc2cccc(Cl)c21)N1CCC[C@@H]1c1ncnn1Cc1ccc(Cl)cc1 (stereo partly drawn) [Compound 87]
40 | 50 to 500 nM | CC[C@H](NC(=O)N1CCC[C@@H]1c1ncnn1Cc1ccc(Cl)cc1)c1c(C)cc(C(F)(F)F)cc1C [Compound 90]
41 | 50 to 500 nM | O=C(N[C@H]1CCCOc2ccc(Cl)cc21)N1CCC[C@@H]1c1ncnn1Cc1ccc(Cl)cc1 [Compound 93]
42 | 500 to 5000 nM | Cc1nc([C@H]2CCCN2C(=O)N[C@H]2CCOc3cc(C(F)(F)F)ccc32)n(Cc2ccc(Cl)cc2)n1 [Compound 96]
43 | 50 to 500 nM | CN1C(=O)COc2ccc(NC(=O)N3CCC[C@@H]3c3ncnn3Cc3ccc(Cl)cc3)cc21 [Compound 99]
44 | 500 to 5000 nM | O=C(NC1(c2ccccc2)CC1)N1CCC[C@@H]1c1ncnn1Cc1ccc(Cl)cc1 [Compound 100]
45 | < 50 nM | Cc1cc(C(F)(F)F)cc(C)c1NC(=O)N1CCC[C@@H]1c1nncn1Cc1ccc(Cl)cc1 [Compound 101]
46 | < 50 nM | O=C(N[C@H]1CCc2ccccc2C1)N1CCC[C@@H]1c1nncn1Cc1ccc(Cl)cc1 [Compound 103]
47 | < 50 nM | Cc1noc(-c2ccccc2)c1NC(=O)N1CCC[C@@H]1c1nncn1Cc1ccc(Cl)cc1 [Compound 105]
48 | < 50 nM | Cc1onc(-c2ccccc2)c1NC(=O)N1CCC[C@@H]1c1nncn1Cc1ccc(Cl)cc1 [Compound 109]
49 | < 50 nM | Cc1nnc([C@H]2CCCN2C(=O)N[C@H]2CCOc3cc(Cl)ccc32)n1Cc1ccc(Cl)cc1 [Compound 113]
50 | < 50 nM | O=C(N[C@H]1CCOc2cc(Cl)ccc21)N1CCC[C@@H]1c1nncn1Cc1ccc(Cl)cc1 [Compound 114]
51 | < 50 nM | Cc1cc(Cl)cc(C)c1NC(=O)N1CCC[C@@H]1c1nnc(C)n1Cc1ccc(Cl)cc1 [Compound 115]
52 | < 50 nM | CC[C@H](NC(=O)N1CCC[C@@H]1c1nnc(C)n1Cc1ccc(Cl)cc1)c1cc2ccccc2o1 [Compound 117]
53 | 50 to 500 nM | Cc1cc(C(F)(F)F)cc(C)c1NC(=O)N1CCC[C@@H]1c1nnc(C(C)C)n1Cc1ccc(Cl)cc1 [Compound 118]
54 | 50 to 500 nM | Cc1nnc([C@H]2CCCN2C(=O)Nc2ccc3occc3c2)n1Cc1ccc(Cl)cc1 [Compound 122]

Reference: patent US8288371B2, “Ortho pyrrolidine, benzyl-substituted heterocycle CCR1 antagonists for autoimmune diseases and inflammation” (Pharmacopeia, LLC, priority 2007, dated 2012)
